# Legend:
# Assay in all cases: relative viability (nuclei count vs DMSO), 5 days (fraction); higher = more cells survive
# [1] = compound: O=C(c1cc(Cc2n[nH]c(=O)c3ccccc23)ccc1F)N1CCN(C(=O)C2CC2)CC1 [Olaparib] + CC(=O)c1c(C)c2cnc(Nc3ccc(N4CCNCC4)cn3)nc2n(C2CCCC2)c1=O [Palbociclib] (partner 0.5 µM)
# Outline: (§1)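 Lung cancer cell lines in 1536-well plates were dosed by pin tool the day after seeding, either with one drug alone or with a fixed anchor-drug dose plus five library-drug doses (not always all listed) in √10 steps. After 5 days, cells were fixed and their nuclei stained in one step (final 0.05% Triton X-100, 1% formaldehyde, 1 ug/ml Hoechst), then counted on 4× images. Relative viability is the nuclei count in treated wells divided by that in vehicle wells. Values are medians of duplicate plates.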
# [2] = compound: CC(C)C[C@H](NC(=O)[C@H](CCc1ccccc1)NC(=O)CN1CCOCC1)C(=O)N[C@@H](Cc1ccccc1)C(=O)N[C@@H](CC(C)C)C(=O)[C@@]1(C)CO1 [Carfilzomib] + COc1cc2c(Oc3ccc(NC(=O)C4(C(=O)Nc5ccc(F)cc5)CC4)cc3F)ccnc2cc1OCCCN1CCOCC1 [Foretinib] (partner 0.25 µM)
# Outline: as §1
# [3] = compound: O=C(c1cc(Cc2n[nH]c(=O)c3ccccc23)ccc1F)N1CCN(C(=O)C2CC2)CC1 [Olaparib] + CC(C)C[C@H](NC(=O)[C@H](Cc1ccccc1)NC(=O)c1cnccn1)B(O)O [Bortezomib] (partner 0.002 µM)
# Outline: as §1
# [4] = compound: CC(C)C[C@H](NC(=O)[C@H](CCc1ccccc1)NC(=O)CN1CCOCC1)C(=O)N[C@@H](Cc1ccccc1)C(=O)N[C@@H](CC(C)C)C(=O)[C@@]1(C)CO1 [Carfilzomib] + N=C(N)NC(=N)NCCc1ccccc1 [Phenformin] (partner 250 µM)
# Outline: as §1
Cell Line,relative viability ([1]; first compound 0.08 µM),relative viability ([1]; first compound 0.253 µM),relative viability ([1]; first compound 2.53 µM),relative viability ([1]; first compound 8 µM),relative viability ([2]; first compound 0.001 µM),relative viability ([2]; first compound 0.003162 µM),relative viability ([2]; first compound 0.01 µM),relative viability ([2]; first compound 0.03162 µM),relative viability ([2]; first compound 0.1 µM),relative viability ([3]; first compound 0.08 µM),relative viability ([3]; first compound 0.253 µM),relative viability ([3]; first compound 2.53 µM),relative viability ([3]; first compound 8 µM),relative viability ([4]; first compound 0.001 µM),relative viability ([4]; first compound 0.003162 µM),relative viability ([4]; first compound 0.01 µM),relative viability ([4]; first compound 0.03162 µM),relative viability ([4]; first compound 0.1 µM)
SK-LU-1,0.452,0.346,0.419,0.343,0.838,0.857,0.919,0.116,0.124,1.33,1.08,1.23,1.19,0.458,0.529,0.48,0.0958,0.114
SW 1573,0.468,0.377,0.338,0.252,0.934,1.27,0.884,0.725,0.0812,1.03,0.987,0.769,0.619,0.341,0.43,0.251,0.0664,0.0618
UMC-11,0.286,–,0.317,0.31,0.996,1.05,1.06,0.944,0.299,0.98,0.648,0.538,0.325,0.318,0.33,0.295,0.293,0.162

# From the supplement of paper PMC10307832
